Measured values as given in patent publication US20220193185A1, “COMBINATION OF SYNTHETIC PEPTIDES WITH AFFINITY TO THE TGF-ß RECEPTOR AND WITH AFFINITY TO THE IL-10 RECEPTOR, PHARMACEUTICAL COMPOSITION AND THEIR USE AS IMMUNOMODULATORS IN THE TREATMENT OF AUTOIMMUNE, INFLAMMATORY OR ALLERGIC DISEASES” (Universidade Federal de Uberlândia, priority 2019, published 2022).

What was measured:
[1] = aggregation behavior in solution by Dynamic Light Scattering (DLS); format: physicochemical; details: for measured hydrodynamic radius: IL-10 mimetic peptides in solution
NFkB pathway [2] = test: NFkB expression in Jurkat-Dual reporter cells, luciferase (IL-10 mimetic peptides); format: cell-based; details: without activating molecules; 12, 24 and 48 hours; different concentrations
Procedure: (§1) In order to investigate the ability of synthetic peptides with affinity to the Interleukin-10 receptor to interfere in the NFkB, IFN and TLR4 pathways, reporter cell lines were used. To analyze whether the isolated peptides (without activation molecules) could induce any type of activation, the isolated peptides were tested in cell lines during 12, 24 and 48 hours of treatment. […] As an example, FIG. 13A, FIG. 13B, and FIG. 13C show an analysis of NFkB expression after stimulation with the synthesized IL-10 receptor affinity synthetic peptides described herein. Cells were treated for 12, 24 and 48 hours with the synthesized peptides Pep 1-IL10, Pep 2-IL10, Pep 3-IL10 and Pep 4-IL10, at different concentrations, without activating molecules. Luciferase was then measured after 12 hours of treatment (FIG. 13A), 24 hours of treatment (FIG. 13B) and 48 hours of treatment (FIG. 13C). […] TNF-α (200 ng/mL) was used as a positive control.
The assay was then carried out using TNF-α as activation molecule not only in the control, but after a pretreatment with the synthesized peptides Pep 1-IL10, Pep 2-IL10, Pep 3-IL10 and Pep 4-IL10, at different concentrations. All peptides were able to modulate NFKB activation after 12, 24 and 48 hours, with different results depending on the concentrations used. […] In the assays shown by FIGS. 14 A, B and C, analysis of NFkB expression was performed in Jurkat-Dual reporter cells. Cells were treated for 1 hour with peptides and TNF-α (200 ng/ml) added. Luciferase was measured after 12 hours of treatment (FIG. 14A), 24 hours of treatment (FIG. 14B) and 48 hours of treatment (FIG. 14C).
Another assay was then performed in which cells were pretreated with TNF-α and the synthesized peptides Pep 1-IL10, Pep 2-IL10, Pep 3-IL10 and Pep 4-IL10, at different concentrations, were added later. All peptides were able to modulate NFKB activation after 12, 24 and 48 hours, with different results depending on the concentrations used. The most significant results will be described below. […] After 48 hours of treatment, Pep 1-IL-10 at a concentration of 0.001 μM (P<0.05) was the one that obtained a result with the highest statistical significance in the decrease of NFKB signaling (FIG. 15C). In the assays shown by FIGS. 15 A, B and C, analysis of NFkB expression was performed in Jurkat-Dual reporter cells. Cells were treated for 1 hour with TNF-α (200 ng/ml) and peptides were added. Luciferase was measured after 12 hours of treatment (FIG. 15A), 24 hours of treatment (FIG. 15B) and 48 hours of treatment (FIG. 15C). TNF-α (200 ng/mL) was used as a positive control and rlL-10 (recombinant Interleukin-10) (0.4 ng/mL) as a negative control. *P<0.05; **P<0.005; ***P<0.0005.

IFN signaling pathway = IFN signaling pathway in Jurkat-Dual reporter cells, SEAP production; format: cell-based; details: after 12, 24 and 48 hours; results depend on concentration
Procedure: as §1
The most significant results will be described below. […] When cells were pretreated with IFN, although peptides at some concentrations indicated results, they were not statistically sufficient. Therefore, we cannot confirm whether they were able to interfere with pathway activation (FIGS. 17 A, B and C) in an equal or better way than the negative control (rIL-10). In the assays shown by FIGS. 16 (A, B and C) and FIGS. 17 (A, B and C), analysis of IFN expression was performed in Jurkat-Dual reporter cells. In the assays shown by FIGS. 16 A, B and C, cells were treated for 1 hour with peptides with further addition of IFN-α (104 EU/ml). Secreted Embryonic Alkaline Phosphatase (SEAP) production was measured after 12 hours of treatment (FIG. 16A), 24 hours of treatment (FIG. 16 B) and 48 hours of treatment (FIG. 16 C). In the assays shown by FIGS. 17A, B and C, cells were treated for 1 hour with IFN-α (104 EU/ml) with further addition of the peptides. SEAP production was measured after (A) 12 hours of treatment (B), 24 hours of treatment and (C) 48 hours of treatment. IFN-α (104 EU/ml) was used as a positive control and rlL-10 (0.4 ng/ml) as a negative control. *P<0.05.

[3] = test system: TGF-β1 receptor on A549 cells; test: ELISA on cells of the A549 line using anti-TGF-β1 antibody; format: binding, human
Procedure: The peptides described in this patent application were selected using the Phage Display (PD) methodology. The selection was performed by evaluating the ability of said peptides to recognize the TGF-β1 receptor on A549 cells, using an ELISA assay. MaxiSorp 96-well microtiter plates were coated with 1×10^6 cells diluted in PBS and incubated overnight at 4° C. Cells were blocked with 3% PBS-BSA for 1 h at 37° C., washed once with PBS and incubated with […] of each TGF-β1 mimetic peptide or 5 ng/ml of recombinant TGF-β1 for 1 h at 37° C. After washing, the plate was incubated for 1 h at 37° C. with anti-TGF-β1 antibody. The plate was washed and incubated with HRP-labeled anti-human IgG antibody for 1 h at 37° C. After washing, TMB substrate solution was added to the plate; the reaction was stopped by adding the 2N H2SO4 solution and read at 492 nm in a microplate reader.
To investigate whether the synthesized peptides could bind to cell receptors, an ELISA assay was performed on cells of the A549 line using commercial anti-TGF-β1 antibody.

[4] = test system: TFGβRII/SMAD-dependent pathway; test: HEK-blue-TGFβ reporter cells, SEAP production; format: cell-based; details: tested at 0.1, 1, 10 and 100 μM; for concentrations with statistically significant activation of the SMAD-dependent pathway (SEAP): 12 hours
Procedure: After 12 hours of stimulation (FIG. 4A), all peptides were able to bind to the receptor.
The assay was performed in such a way that approximately 2.5×10^4 cells/well (100 μL) were treated with 100 μL of all synthetic peptides at different concentrations (100 μM, 10 μM, 1 μM and 0.1 μM) while rTGF-β1 ([…]) at 100 ng/ml was used as a positive control. After incubating the cells for 12, 24 and 48 hours at 37° C. in 5% CO2, […] of supernatant was transferred to a Greiner plate to which […] of Quanti-blue solution was added. The plate was incubated for 1 hour at 37° C. in 5% CO2 and the production of SEAP (secreted alkaline phosphatase) was detected at 655 nm. All tests were performed in triplicate.

NFkB pathway [5] = test: NFkB expression in Jurkat cells, luciferase (TGF-β1 mimetic peptides); format: cell-based, human; details: peptide pretreatment 1 hour, then TNF-α, tested at 0.1-100 μM
Procedure: Two different cell treatments were performed using Jurkat cells to analyze NFkB expression after 12, 24 and 48 hours. In the first test, Jurkat cells were treated only with peptides (no pathway activating molecule) at different concentrations to analyze the ability of each peptide to induce NFkB expression (Figure not shown). None of the tested concentrations induced any type of pathway activation.
The assay was carried out in such a way that a total of 3×10^5 cells/well ([…]) was pretreated with […] of a composition comprising one of the synthetic peptides in concentrations of 100 μM, 10 μM, 1 μM, and 0.1 μM for 1 hour at 37° C. in 5% CO2, followed by stimulation with TNF-α (200 ng/ml) for 12, 24 and 48 hours. The same stimuli were applied to cells pretreated with TNF-α (200 ng/ml) for 1 hour at 37° C. in 5% CO2 followed by stimulation with peptides at 100 μM, 10 μM, 1 μM and 0.1 μM for 12, 24 and 48 hours. Then, […] of supernatant was transferred to a white plate and Quanti-Luc reagent was used to measure the luciferase product. As a control, the peptides were tested at the same concentrations, without any pathway activating molecule, to investigate whether they could activate the NFkB pathway. TNF-α (200 ng/mL) was used as a positive control and rIL-10 (0.4 ng/mL) as a negative control. […].

TLR4 pathway = test: HEK-Blue hTLR4 reporter cells, SEAP production (TGF-β1 mimetic peptides); format: cell-based; details: peptide pretreatment 1 hour, then LPS 100 ng/mL; 12 hours
Procedure: Similar to the treatment using Jurkat cells, peptides in compositions with different concentrations were also tested in HEK cells to investigate their ability to interfere with the TLR4 pathway.
To ensure that the peptides could not induce any activation when tested alone (no pathway activation molecule) only the peptides were added into the cell line and SEAP production was measured after 12 hours of treatment (Figure not shown).
The assay was performed using HEK-Blue hTLR4 reporter cells (InvivoGen) to investigate the action of peptides in the TLR4 pathway. A total of 2.3×10^4 cells/well ([…]) was pretreated with […] of composition comprising at least one of the synthetic peptides at concentrations of 100 μM, 10 μM, 1 μM, and 0.1 μM for 1 hour at 37° C. ° C. in 5% CO2 followed by LPS stimulation at 100 ng/mL for 12 hours. The same stimuli were applied to cells pretreated with LPS at 100 ng/ml for 1 hour at 37° C. in 5% CO2, followed by stimuli with peptides at 100 μM, 10 μM, 1 μM and 0.1 μM for 12 hours. Stimuli were added in Quanti-blue medium and SEAP production was measured at 655 nm. As a control, peptides at the same concentrations were tested alone to investigate whether they could activate the TLR4 pathway and LPS was used as a positive control.

Row | Substance | measured hydrodynamic radius [1] [nm] | induction of NFkB expression by peptides alone (NFkB pathway [2]) | modulation of the activation of the IFN signaling pathway (IFN signaling pathway) | recognition of receptor-bound peptide by anti-TGF-β1 antibody compared to recombinant TGF-β1 [3] | concentrations with statistically significant activation of the SMAD-dependent pathway (SEAP) [4] | concentrations with statistically significant decrease of NFKB pathway activation vs TNF-α control (NFkB pathway [5]; 24 hours) | concentrations with statistically significant decrease of NFKB pathway activation vs TNF-α control (NFkB pathway [5]; 48 hours) | concentrations with statistically significant reduction of TLR4 pathway activation (TLR4 pathway) | concentrations with significant maintained activation of the SMAD-dependent pathway (SEAP) ([4]; 24 hours) [µM] | concentrations with significant maintained activation of the SMAD-dependent pathway (SEAP) ([4]; 48 hours) | hydrodynamic radius ([1]; TGF-β1 mimetic peptides in solution) [nm]
1 | Pep 3-IL-10: synthetic peptide with affinity to the Interleukin-10 receptor, SEQ ID NO: 11 (HCFDTQRMEFRMPPGG) | 0.79 | not able to induce any response | able to modulate the activation of the IFN signaling pathway | – | – | – | – | – | – | – | –
2 | Pep 4-IL-10: synthetic peptide with affinity to the Interleukin-10 receptor, SEQ ID NO: 12 (HCMTGSRATFPSAPGG) | 0.86 | not able to induce any response | able to modulate the activation of the IFN signaling pathway | – | – | – | – | – | – | – | –
3 | Pep 5-TGF-β1: synthetic peptide with affinity to the TGF-β receptor, SEQ ID N 05, free of disulfide bridges (HASFLPASGLSGGGS) | – | – | – | recognized as statistically different | 0.1 μM, 1 μM, 10 μM and 100 μM | 0.1 μM; 1 μM and 100 μM | 0.1 μM; 1 μM and 10 μM | 1 µM and 10 µM | – | – | –
4 | Pep 6-TGF-β1: synthetic peptide with affinity to the TGF-β receptor, SEQ ID N 06, free of disulfide bridges (HASKLQRSEPSGGGS) | – | – | – | recognized as statistically different | 0.1 μM, 10 μM and 100 μM | 0.1 µM | – | 1 µM | 100 | 0.1 µM and 1 µM | –
5 | Pep 7-TGF-β1: synthetic peptide with affinity to the TGF-β receptor, SEQ ID N 07, free of disulfide bridges (HASTIASTLHSGGGS) | – | – | – | recognized as statistically different | 0.1 μM: 1 μM; 10 μM and 100 μM | 1 µM and 100 µM | 1 µM | 0.1 μM; 1 μM and 10 μM | – | – | 2.94
